Assay results as given in patent EP0077430B1, “A pharmaceutical composition for enhancing keratinogenesis and reducing facial and scalp seborrhea” (Mavi S.r.l., priority 1981, dated 1983).

Key:
Format in all cases: in vivo, Whistar rats
[1] = tested on: rats kept on a biotin poor diet; assay: Experimental test 1: skin total lipids and hair sulphur content of rats on a biotin free diet with additives
Source text: According to the invention in fact the intimate distribution of the cystine within the mass of "soft" gelatin ensures a particularly favorable oral absorption, so that it is possible to reduce the doses of active substances with respect to the doses established by the prior art for the indicated pharmaceutical use. […] It is in fact known that the alimentary insufficiency of biotin induces, in the rat, the formation of a seborrhoic clinical condition, characterized by the increase of the sebaceous secretion and by the fall of hair.
In order to have a direct comparison, said rats have been successively treated, in different lots, -with diets to which was added respectively gelatin, cystine, gelatin-cystine in mechanical mixture and gelatin-cystine in soft spherules.
60 Whistar rats were employed of both sexes (30 males and 30 females) of the average weight of 150 g±9. Following the Kalopissis et al methodology (U.S. patent No. 3629452) 50 rats were kept on a biotin free diet for about 40 days until an evident seborrhoic clinical condition had developed, while the remaining 10 served as controls. After obtaining the desired clinical condition with the development of seborrhoea and loss of hair in various zones, the 50 rats were subdivided into five groups of 10 rats each and treated as follows: • 1st group: biotin free diet added with cystine; • 2nd group: biotin free diet added with gelatin; • 3rd group: biotin free diet added with cystine and gelatin in mechanical mixture; • 4th group: biotin free diet added with the mixture of gelatin/cystine melted in soft spherules; • 5th group: biotin free diet; • 6th group: control.
The diets were administered weekly in the cages of the rats in accurately weighed quantity so that the rats, kept in single cages, would ingest together with the feed, respectively: • 1st group: 84 mg per kg a week of cystine; • 2nd group: 203 mg per kg a week of gelatin from collagen; • 3rd group: 84 mg per kg a week of cystine and 203 mg per kg a week of gelatin; • 4th group: 280 mg per kg a week of the melted mixture of gelatin/cystine comprising 79.8 mg of cystine and 200.2 mg of gelatin.
After three weeks of treatment and after taking about 200 mg of hairs per rat, all the animals, included the controls, were sacrificed in a chloroform saturated environment in order to control their skin total lipids and in order to carry out possible histological and bioptic examinations. […]
The content of the total lipids was determined gravimetrically by the difference in weight of the sample before and after the extraction in a Soxhlet with acetone for 10 days and further drying out in vacuum over P205 and paraffin for 24 hours.

[2] = tested on: biotin poor rats; assay: Experimental test 2, lot I: composition of hair keratin (sulphur, cystine, proteins) of biotin poor rats
Source text: (§1) The elective stimulating action has also been verified on rats, performed especially by the gelatin cystine, in the keratinization processes of the hairy structures, verifying the average content of sulphur and cystine of the hair of rats kept on a normal diet and respectively of rats kept on a biotin poor diet, fed respectively only gelatin, only cystine and the association of gelatin-cystine both in the form of mechanical mixture in hard capsules, and in the form melted in soft spherules.
(§2) 110 Whistar rats of both sexes were employed (55 males plus 55 females) of the average weight of 150 g±9, divided in two lots of respectively 60 (lot I) and 50 (lot II) rats each. Following the Kalopissis and Manoussos methodology already quoted in test 1, 50 rats of lot I were kept on a biotin poor diet for about 40 days until the appearance of an evident seborrhoic clinical condition was induced, while the remaining 10 served as controls. After having obtained the desired clinical condition with the appearance of seborrhoea and loss of hair in several zones, the 60 rats were divided into six groups of 10 rats each and treated as follows:
The diets prepared specifically by a specialized firm were administered weekly in the cages of the rats, in accurately weighed quantity so that the rats, kept in single cages, would ingest together with the feed, respectively:
After six weeks of treatment and after having taken about 1 gof hair per rat, all the animals included the controls were sacrificed in a chloroform saturated atmosphere.
(§3) A part of the hair (about 100 mg) of all the animals of the two groups, thoroughly washed with alcohol and ethyl ether and dried, are used for the determination of the total sulphur carried out by means of titration, according to the previously mentioned McDonald methodology.
(§4) After having hydrolyzed the hair of all the animals (about 800 mg) previously washed as already described, the quantity of cystine was determined using an autoanalyzer.
(§5) The extraction of the total keratins of the hairs was carried out using the urea-thioglycolate method as described in Gillespie J. M., Reis P. J. and Schinckel P. G. (1964) Aust. J. Biol. Sci. 17, 548.
(§6) After determining from one portion the total keratin (total proteins), the keratin fraction of high sulphur content is separated through alkylation with iodo acetate, dialysis and precipitation of the protein of low sulphur content with zinc acetate at pH 6. The total sulphur was determined on the protein fraction "rich in sulphur" according to the already mentioned McDonald methodology.

[3] = tested on: normal rats, not subjected previously to a biotin poor diet; assay: Experimental test 2, lot II: composition of hair keratin of normal rats fed an enriched diet; conditions: 150 days of treatment
Source text: as §1, §2
The 50 rats of the second lot (normal rats, not subjected previously to a biotin poor diet), divided into five groups of 10 rats each, have been fed respectively:
The quantity of the feed placed in the cages was calculated in such a way that the rats would ingest the same quantity per kg of cystin, FU gelatin or gelatin-cystine already described above.
After 150 days of treatment the rats, under ether anaesthesia, were partially depilated with a razor.
as §3, §4, §5, §6

[4] = in the biotin-poor rats, oral, P<0.05
[5] = hair of biotin poor rats, six weeks of treatment

## N[C@@H](CSSC[C@H](N)C(=O)O)C(=O)O [Levo-cystine]
[1]; dorsal skin, gravimetric after acetone extraction, biotin poor diet plus additive, three weeks of treatment, °=P<0.05 versus group VI (controls)
  Total lipides %: 38.1±2.987° %
[1]; [4]
  increase of the total sulphur of the hair: about 7%
  reduction of the total lipids of the skin: about 15%
[1]; total sulphur by titration, percentage of dried weight of hair, biotin poor diet plus additive, three weeks of treatment
  Sulphur content (×g hair, %): 2.48±0.066° %
[2]; [5]
  "Sulphur rich" proteic fraction %: 20±1%
  Sulphur contained in the "sulphur rich" proteic fraction, %: 3.9±0.05%
  Sulphur content %: 2.48±0.07° %
[2]; hair of biotin poor rats, six weeks of treatment, g/100 g of hairs, autoanalyzer after hydrolysis
  Cystine content %: 9.3±0.6%
[2]; total keratins of hair, urea-thioglycolate extraction, biotin poor rats, six weeks
  Total proteins %: 90±1%
[3]
  "Sulphur rich" keratin %: 25.9±0.5° %
  Cystine content %: 13.8±0.6° %
  Sulphur contained in the "sulphur rich keratin" %: 5.1±0.2° %
  Sulphur content %: 3.6±0.1° %
